Drawing on US20260022116A1, “IMIDAZOPYRIDINE COMPOUNDS, PREPARATION THEREOF AND THERAPEUTIC USES THEREOF” (SANOFI, priority 2022, published 2026), this text covers IC50 for 25 molecules.

Assay [1] has as its target T1, ERK5 (Homo sapiens, UniProt Q13164). In words: cell-based.
Target sequence in this assay (Q13164 whole entry): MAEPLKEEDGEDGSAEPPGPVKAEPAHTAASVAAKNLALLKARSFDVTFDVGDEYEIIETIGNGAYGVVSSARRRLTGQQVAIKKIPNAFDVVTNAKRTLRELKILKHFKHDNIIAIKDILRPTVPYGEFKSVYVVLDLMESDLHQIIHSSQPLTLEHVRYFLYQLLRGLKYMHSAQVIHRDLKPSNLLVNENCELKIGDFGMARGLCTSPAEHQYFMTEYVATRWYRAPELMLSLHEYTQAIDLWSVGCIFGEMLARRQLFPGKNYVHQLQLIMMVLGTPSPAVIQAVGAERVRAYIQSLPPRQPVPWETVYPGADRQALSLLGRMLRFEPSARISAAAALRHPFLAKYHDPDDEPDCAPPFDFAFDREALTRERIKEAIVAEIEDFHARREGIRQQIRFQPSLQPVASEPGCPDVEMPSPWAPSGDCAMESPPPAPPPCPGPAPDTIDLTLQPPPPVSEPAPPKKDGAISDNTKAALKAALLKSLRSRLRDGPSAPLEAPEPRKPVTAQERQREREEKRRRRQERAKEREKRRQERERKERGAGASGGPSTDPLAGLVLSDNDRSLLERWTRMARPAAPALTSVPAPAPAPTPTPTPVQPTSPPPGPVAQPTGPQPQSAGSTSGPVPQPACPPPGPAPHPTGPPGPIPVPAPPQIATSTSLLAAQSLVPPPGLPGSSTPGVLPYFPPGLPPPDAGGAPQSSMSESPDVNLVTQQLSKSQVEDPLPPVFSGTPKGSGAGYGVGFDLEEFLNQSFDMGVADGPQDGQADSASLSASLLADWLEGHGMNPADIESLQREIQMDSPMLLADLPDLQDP
Experimental: (§1) Two assays were performed to assess the ERK5 inhibitory activity of compounds of the Examples, a cell-based assay and a cell-free biochemical assay.
The renal cancer cell line SN12C was transduced by a lentivirus pGreenFire1 MEF2 EF1 Neo (ref TR030VA-N) from SBI using standard infection protocol. pGreenFire1 MEF2 EF1 Neo allows the expression of luciferase gene under the control of minimal promoter with MEF2 transcriptional response elements. Cells harboring the reporter construct were selected by geneticin treatment. The selected cells were then transposed by a piggyback based plasmid pCM4007 allowing the expression of constitutively activated MEK5DD under control of TREG3 promoter, a doxycycline regulated promoter. Transposed cells were selected by puromycin treatment. Upon doxycycline treatment (1 μg/ml) MEK5DD was expressed. MEK5DD activates ERK5 that phosphorylates MEF2C protein. Activated MEF2C protein can bind to its transcriptional response elements. Then the luciferase is expressed. In a 96-well plate (96F nuncleon ref137101 thermofisher), 50,000 cells were inoculated in 142.5 μl of RPMI medium containing 10% fetal calf serum, 1% glutamine, and 1 μg/ml doxycycline. […] The luciferase activity was measured using the Kit Bright Glo Luminescent Cell Assay Cat E2610 (Promega) according to the manufacturer's protocol. Luminescence was determined using 0.2 second reading/well using a Tecan SPARK. IC50 values were calculated using XLFIT5 for Microsoft Excel using method 205.
For assay [2], the target named is T1, ERK5. In words: biochemical.
Target sequence in this assay (Q13164 55-347 limits assumed): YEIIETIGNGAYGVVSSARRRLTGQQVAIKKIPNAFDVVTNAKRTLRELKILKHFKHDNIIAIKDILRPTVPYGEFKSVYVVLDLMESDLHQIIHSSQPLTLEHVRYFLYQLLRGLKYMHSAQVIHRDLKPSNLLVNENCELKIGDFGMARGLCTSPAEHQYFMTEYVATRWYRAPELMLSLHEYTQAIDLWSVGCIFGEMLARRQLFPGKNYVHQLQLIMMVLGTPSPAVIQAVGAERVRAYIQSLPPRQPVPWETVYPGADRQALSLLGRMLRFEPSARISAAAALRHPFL
Experimental: as §1
An assay was performed to measure the capacity of each compound to inhibit ERK5 enzymatic activity. Compound potency was evaluated by Time-Resolved Forster Resonance Energy Transfer (FRET system). […] A mixture of 1 mM ATP and 1 μM biotinylated synthetic peptide was added (Biosyntan GmbH). This synthetic peptide represents amino acids 30-52 of Eukaryotic translation initiation factor 4E-binding protein 1 (see, e.g., the sequence under accession No. NP_004086.1) biotinylated at the N-terminus.

Where a name gives a salt, the structure may show the parent alone.

The IC50 is the point on the concentration scale where inhibition reaches its midpoint. High values mean weaker potency in that assay, low ones greater potency in that assay.

`O=C(c1ccc(OC(F)(F)F)cc1)N1CCC(c2c(F)cnc3[nH]c(C45CC(C(F)(F)F)(C4)C5)nc23)CC1` [Example 436, [4-[6-fluoro-2-[3-(trifluoromethyl)-1-bicyclo[1.1.1]pentanyl]-3H-imidazo[4,5-b]pyridin-7-yl]-1-piperidyl]-[4-(trifluoromethoxy)phenyl]methanone]: the IC50 against ERK5 [1] was 38 to 88 nM; on ERK5 [2], 4500 nM. In the same order, the values of `O=C(c1ccc(S(F)(F)(F)(F)F)cc1)N1CCC(c2ccnc3[nH]c(C4CCOC4)nc23)CC1` (single isomer, unassigned) [Example 301, [4-(pentafluoro-λ^6-sulfanyl)phenyl]-[4-[2-[tetrahydrofuran-3-yl]-3H-imidazo[4,5-b]pyridin-7-yl]-1-piperidyl]methanone] are 284 nM and 273 nM. With `Nc1cc(OC(F)(F)F)ccc1C(=O)N1CCC(c2ccnc3[nH]c(C4CNCCO4)nc23)CC1` (single isomer, unassigned) [Example 96, [2-amino-4-(trifluoromethoxy)phenyl]-[4-[2-[morpholin-2-yl]-3H-imidazo[4,5-b]pyridin-7-yl]-1-piperidyl]methanone], the values for the IC50 against ERK5 [1] and against ERK5 [2] were 87 nM and 83 nM, respectively.

`Nc1cc(OC(F)(F)F)ccc1C(=O)N1CCC(c2ccnc3[nH]c(C4COCCO4)nc23)CC1` (single isomer, unassigned) [Example 144, [2-amino-4-(trifluoromethoxy)phenyl]-[4-[2-[1,4-dioxan-2-yl]-3H-imidazo[4,5-b]pyridin-7-yl]-1-piperidyl]methanone]: the IC50 turned out to be 98 nM against ERK5 [1] and 102 nM against ERK5 [2].

On to `Nc1cc(OC(F)(F)F)ccc1C(=O)N1CCC(c2ccnc3[nH]c(CC4CCOC4)nc23)CC1` (single isomer, unassigned) [Example 2, [2-Amino-4-(trifluoromethoxy)phenyl]-[4-[2-(tetrahydrofuran-3-ylmethyl)-3H-imidazo[4,5-b]pyridin-7-yl]-1-piperidyl]methanone], for which the values for the IC50 at ERK5 [1] and on ERK5 [2] were 134 nM and 140 nM, respectively. In the same order, the values of `O=C(C1CC1c1cccc(O)c1)N1CCC(c2ccnc3[nH]c(C4CCOCC4)nc23)CC1` (stereo not drawn) [Example 86, [2-(3-hydroxyphenyl)cyclopropyl]-[4-(2-tetrahydropyran-4-yl-3H-imidazo[4,5-b]pyridin-7-yl)-1-piperidyl]methanone] are more than 10000 nM and 25200 nM. As to `Nc1c(C(=O)N2CCC(c3ccnc4[nH]c(C5CCOCC5)nc34)CC2)ccc(OC(F)(F)F)c1F` [Example 189, [2-amino-3-fluoro-4-(trifluoromethoxy)phenyl]-[4-(2-tetrahydropyran-4-yl-3H-imidazo[4,5-b]pyridin-7-yl)-1-piperidyl]methanone], the IC50 against ERK5 [1] was 37 nM; against ERK5 [2] it was 36 nM. On the same counts, the results for `O=C(c1ccc(C(F)(F)F)c(=O)[nH]1)N1CCC(c2ccnc3[nH]c(C4CCOCC4)nc23)CC1` [Example 53, 6-[4-(2-Tetrahydropyran-4-yl-3H-imidazo[4,5-b]pyridin-7-yl)piperidine-1-carbonyl]-3-(trifluoromethyl)-1H-pyridin-2-one, hydrochloride] are more than 10000 nM and 262 nM. In the same order, the values of `CS(=O)(=O)c1ccc(C(=O)N2CCC(c3ccnc4[nH]c(C5CCOCC5)nc34)CC2)c(N)c1` [Example 84, (2-amino-4-methylsulfonyl-phenyl)-[4-(2-tetrahydropyran-4-yl-3H-imidazo[4,5-b]pyridin-7-yl)-1-piperidyl]methanone] are more than 10000 nM and 26800 nM. `O=C(c1ccc(S(F)(F)(F)(F)F)cc1)N1CCC(c2c(F)cnc3[nH]c(C4CCOC4)nc23)CC1` (single isomer, unassigned) [Example 400, [4-[6-fluoro-2-[tetrahydrofuran-3-yl]-3H-imidazo[4,5-b]pyridin-7-yl]-1-piperidyl]-[4-(pentafluoro-λ^6-sulfanyl)phenyl]methanone]: the results for the IC50 against ERK5 [1] and against ERK5 [2] were 104 to 165 nM and 684 nM, respectively. Turning to `Nc1cc(OC(F)(F)F)ccc1C(=O)N1CCC(c2c(F)cnc3[nH]c(C45CC(C(F)(F)F)(C4)C5)nc23)CC1` [Example 432, [2-amino-4-(trifluoromethoxy)phenyl]-[4-[6-fluoro-2-[3-(trifluoromethyl)-1-bicyclo[1.1.1]pentanyl]-3H-imidazo[4,5-b]pyridin-7-yl]-1-piperidyl]methanone], the IC50 on ERK5 [1] was 16 to 43 nM; at ERK5 [2] it was 3870 nM. In the same order, the values of `COC12CC(c3nc4c(C5CCN(C(=O)c6ccc(OC(F)(F)F)cc6N)CC5)ccnc4[nH]3)(C1)C2` [Example 150, [2-amino-4-(trifluoromethoxy)phenyl]-[4-[2-(3-methoxy-1-bicyclo[1.1.1]pentanyl)-3H-imidazo[4,5-b]pyridin-7-yl]-1-piperidyl]methanone] are 13 nM and 13 nM.

For `CC12CC(N)(C1)C(c1nc3c(C4CCN(C(=O)c5ccc(OC(F)(F)F)cc5N)CC4)ccnc3[nH]1)O2` (single isomer, unassigned) [Example 254, [4-[2-[4-amino-1-methyl-2-oxabicyclo[2.1.1]hexan-3-yl]-3H-imidazo[4,5-b]pyridin-7-yl]-1-piperidyl]-[2-amino-4-(trifluoromethoxy)phenyl]methanone], the IC50 against ERK5 [1] worked out at 203 nM; at ERK5 [2] it was 207 nM. For `Nc1cc(OC(F)(F)F)ccc1C(=O)N1CCC(c2ccnc3[nH]c(C4CCN(CC(F)F)CC4)nc23)CC1` [Example 37, [2-Amino-4-(trifluoromethoxy)phenyl]-[4-[2-[1-(2,2-difluoroethyl)-4-piperidyl]-3H-imidazo[4,5-b]pyridin-7-yl]-1-piperidyl]methanone], the IC50 against ERK5 [1] and against ERK5 [2] was 47 nM throughout. In the case of `CN1CCC(c2nc3c(C4CCN(C(=O)c5ccc(OC(F)(F)F)cc5)CC4)ccnc3[nH]2)C1` (single isomer, unassigned) [Example 24, [4-[2-(1-Methylpyrrolidin-3-yl)-3H-imidazo[4,5-b]pyridin-7-yl]-1-piperidyl]-[4-(trifluoromethoxy)phenyl]methanone], the IC50 at ERK5 [1] is 150 nM; on ERK5 [2], 148 nM.

As to `Nc1nc2ccccc2nc1C(=O)N1CCC(c2ccnc3[nH]c(C4CCOCC4)nc23)CC1` [Example 116, (3-aminoquinoxalin-2-yl)-[4-(2-tetrahydropyran-4-yl-3H-imidazo[4,5-b]pyridin-7-yl)-1-piperidyl]methanone], the values for the IC50 against ERK5 [1] and at ERK5 [2] were more than 10000 nM and 16400 nM, respectively. Regarding `O=C(c1ccc(C(F)(F)F)[nH]c1=O)N1CCC(c2ccnc3[nH]c(C4CCOCC4)nc23)CC1` [Example 264, 3-[4-(2-tetrahydropyran-4-yl-3H-imidazo[4,5-b]pyridin-7-yl)piperidine-1-carbonyl]-6-(trifluoromethyl)-1H-pyridin-2-one], the IC50 at ERK5 [1] is more than 10000 nM; on ERK5 [2], 98 nM.

With `O=C1Nc2ccccc2OC1CC(=O)N1CCC(c2ccnc3[nH]c(C4CCOCC4)nc23)CC1` (stereo not drawn) [Example 106, 2-[2-oxo-2-[4-(2-tetrahydropyran-4-yl-3H-imidazo[4,5-b]pyridin-7-yl)-1-piperidyl]ethyl]-4H-1,4-benzoxazin-3-one], the figures for the IC50 at ERK5 [1] and at ERK5 [2] were more than 10000 nM and 25700 nM, respectively.

Take `O=C(c1ccc(S(F)(F)(F)(F)F)cc1)N1CCC(c2ccnc3[nH]c(C4CCCO4)nc23)CC1` (single isomer, unassigned) [Example 298, [4-(pentafluoro-λ^6-sulfanyl)phenyl]-[4-[2-[tetrahydrofuran-2-yl]-3H-imidazo[4,5-b]pyridin-7-yl]-1-piperidyl]methanone]: the IC50 on ERK5 [1] is 163 nM; at ERK5 [2], 166 nM.

In the case of `COC12CC(c3nc4c(C5CCN(C(=O)c6ccc(S(F)(F)(F)(F)F)cc6)CC5)ccnc4[nH]3)(C1)C2` [Example 302, [4-[2-(3-methoxy-1-bicyclo[1.1.1]pentanyl)-3H-imidazo[4,5-b]pyridin-7-yl]-1-piperidyl]-[4-(pentafluoro-λ^6-sulfanyl)phenyl]methanone], the values for the IC50 against ERK5 [1] and at ERK5 [2] were 97 nM and 95 nM, respectively. In the same order, the values of `O=C(c1cn(-c2ccc(F)cc2)cn1)N1CCC(c2ccnc3[nH]c(C4CCOCC4)nc23)CC1` [Example 120, [1-(4-fluorophenyl)imidazol-4-yl]-[4-(2-tetrahydropyran-4-yl-3H-imidazo[4,5-b]pyridin-7-yl)-1-piperidyl]methanone] are more than 10000 nM and 6600 nM.

`Nc1c(C(=O)N2CCC(c3ccnc4[nH]c(C5CCOCC5)nc34)CC2)cnn1-c1ccccc1` [Example 105, (5-amino-1-phenyl-pyrazol-4-yl)-[4-(2-tetrahydropyran-4-yl-3H-imidazo[4,5-b]pyridin-7-yl)-1-piperidyl]methanone]: the IC50 was found to be 6640 nM against ERK5 [1] and 6910 nM against ERK5 [2].

Take `O=C(c1cnn(Cc2ccccc2Cl)c1)N1CCC(c2ccnc3[nH]c(C4CCOCC4)nc23)CC1` [Example 112, [1-[(2-chlorophenyl)methyl]pyrazol-4-yl]-[4-(2-tetrahydropyran-4-yl-3H-imidazo[4,5-b]pyridin-7-yl)-1-piperidyl]methanone]: the IC50 on ERK5 [1] is more than 10000 nM; on ERK5 [2], 14900 nM.

Regarding `O=C(c1ccc(S(F)(F)(F)(F)F)cc1)N1CCC(c2c(F)cnc3[nH]c(C4CN(C(=O)O)C5COCC5O4)nc23)CC1` (racemic) [Example 455, (rac)-2-[6-fluoro-7-[1-[4-(pentafluoro-λ^6-sulfanyl)benzoyl]-4-piperidyl]-3H-imidazo[4,5-b]pyridin-2-yl]-2,3,4a,5,7,7a-hexahydrofuro[3,4-b][1,4]oxazine-4-carboxylic acid], on ERK5 [2], the IC50 is 6460 nM. Still for that read-out and setting: the result for `O=C(c1ccc(S(F)(F)(F)(F)F)cc1)N1CCC(c2c(F)cnc3[nH]c([C@H]4CC[C@@](O)(C(F)(F)F)CC4)nc23)CC1` [Example 450, (trans)-[4-[6-fluoro-2-[4-hydroxy-4-(trifluoromethyl)cyclohexyl]-3H-imidazo[4,5-b]pyridin-7-yl]-1-piperidyl]-[4-(pentafluoro-λ^6-sulfanyl)phenyl]methanone] reads 10500 nM.
